# Test results from ChEMBL document CHEMBL3877329, “Antiprotozoal glutathione derivatives with flagellar membrane binding activity against T. brucei rhodesiense” (Bioorg Med Chem, 2017).
# The source made the active and inactive calls. The rule behind the calls is not given here.
# What was measured:
# Trypanosoma cruzi = experiment: Antitrypanosomal activity against Trypanosoma cruzi MHOM/BR/OO/Y trypomastigotes infected in CD1 mouse peritoneal macrophages after 3 days; format: functional; conditions: 72 h, read-out: ED50 (the source's name)
# [1] = test system: Trypanosoma brucei rhodesiense; experiment: Antitrypanosomal activity against Trypanosoma brucei rhodesiense STIB900 bloodstream trypomastigote forms measured on day 3 post treatment by alamar blue assay; format: functional; conditions: STIB900, 72 h, read-out: ED50 (the source's name)
# Leishmania donovani = experiment: Antileishmanial activity against Leishmania donovani MHOM/ET/67/HU3 amastigotes infected in CD1 mouse peritoneal macrophages after 5 days; format: functional; conditions: for EC50: MHOM/ET/67/HU3, 120 h, read-out: ED50 (the source's name)
# [2] = Cytotoxicity against human KB cells after 3 days by fluorometric assay; format: toxicity, cell-based; conditions: read-out: ED50
# [3] = Selectivity index, ratio of ED50 for human KB cells to ED50 for Trypanosoma brucei rhodesiense STIB900 bloodstream trypomastigote forms; format: toxicity, cell-based; conditions: read-out: Ratio ED50
# [4] = Drug release from Trypanosoma brucei brucei S247 bloodstream forms cell membrane treated with N-benzyloxy carbonyl-S-(4-bromobenzyl)glutathione dimethyl ester at 50 uM after 120 mins in presence of 1 M NaCl by HPLC-UV method; format: ADME; conditions: 2 h
# [5] = Drug release from Trypanosoma brucei brucei S247 bloodstream forms cell membrane treated with N-benzyloxy carbonyl-S-(4-bromobenzyl)glutathione dimethyl ester at 50 uM after 120 mins in presence of 6 M urea by HPLC-UV method; format: ADME, tissue-based; conditions: blood, 2 h
# [6] = test system: Trypanosoma brucei brucei; experiment: Antitrypanosomal activity against Trypanosoma brucei brucei S247 bloodstream forms assessed as immobility of parasite at 50 uM up to 1 min by optical microscopic method; format: functional
# [7] = test system: Trypanosoma brucei brucei; experiment: Antitrypanosomal activity against Trypanosoma brucei brucei S247 bloodstream forms assessed as swelling of parasite head at 50 uM after 5 mins by optical microscopic method; format: functional
# [8] = test system: Trypanosoma brucei brucei; experiment: Antitrypanosomal activity against Trypanosoma brucei brucei S247 bloodstream forms assessed as circular appearance at 50 uM after 30 to 40 mins by optical microscopic method; format: functional
# [9] = test system: Trypanosoma brucei brucei; experiment: Antitrypanosomal activity against Trypanosoma brucei brucei S247 bloodstream forms assessed as swirling motion of cell particles at 50 uM after 1 hr by optical microscopic method; format: functional
# [10] = test system: Trypanosoma brucei brucei; experiment: Antitrypanosomal activity against Trypanosoma brucei brucei S247 bloodstream forms; format: functional; conditions: read-out: ED50 (the source's name)
# [11] = Drug release fromTrypanosoma brucei brucei S247 bloodstream forms cell membrane at 50 uM after 120 mins in presence of 1 M NaCl by HPLC-UV method; format: ADME; conditions: trypanosoma brucei brucei, 2 h
# [12] = Drug release from Trypanosoma brucei brucei S247 bloodstream forms cell membrane at 50 uM after 120 mins in presence of 6 M urea by HPLC-UV method; format: ADME, tissue-based; conditions: blood, 2 h
# [13] = Drug uptake in Trypanosoma brucei brucei S247 bloodstream forms at 50 uM after 5 mins by HPLC-UV method; format: ADME
# Mus musculus = organism: Mus musculus; experiment: Cytotoxicity against CD1 mouse peritoneal macrophages assessed as induction of cell membrane lysis at 30 uM by optical microscopic method; format: toxicity; conditions: peritoneal macrophage
Molecule,EC50 (Trypanosoma cruzi) [µM],EC50 [1] [µM],EC50 (Leishmania donovani) [µM],CC50 at 72 h [2] [µM],selectivity ratio [3],also measured
O=C(Cn1ccnc1[N+](=O)[O-])NCc1ccccc1 [BENZNIDAZOLE],4.4,,,,,
CCCCOC(=O)CNC(=O)[C@H](CSc1ccc([N+](=O)[O-])cc1[N+](=O)[O-])NC(=O)CC[C@H](NC(=O)CCc1ccccc1)C(=O)OCCCC,> 30,2.02,> 30,> 300,> 148,
CCCCOC(=O)CNC(=O)[C@H](CSc1ccc([N+](=O)[O-])cc1[N+](=O)[O-])NC(=O)CC[C@H](NC(=O)C(C)(C)C)C(=O)OCCCC,8.4,0.6,,83.4,139,
COC(=O)CNC(=O)[C@H](CSCc1ccc(Br)cc1)NC(=O)CC[C@H](NC(=O)OCc1ccccc1)C(=O)O,,,,,,Drug uptake [4]: 24%; Drug uptake [5]: 8%
N=C(N)c1ccc(OCCCCCOc2ccc(C(=N)N)cc2)cc1,,0.00033,,,,
CCCCOC(=O)CNC(=O)[C@H](CSc1ccc([N+](=O)[O-])cc1[N+](=O)[O-])NC(=O)CC[C@H](Nc1nc(N)nc(Cl)n1)C(=O)OCCCC,,18.8,,> 300,> 15.9,
O=C(O)CNC(=O)[C@H](CSCc1ccc(Br)cc1)NC(=O)CC[C@H](NC(=O)OCc1ccccc1)C(=O)O,,,,,,Drug uptake [5]: 12%
CCCCOC(=O)CNC(=O)[C@H](CSc1ccc([N+](=O)[O-])cc1[N+](=O)[O-])NC(=O)CC[C@H](NC(=O)COc1ccccc1)C(=O)OCCCC,> 30,0.6,,> 300,> 500,
CCCCOC(=O)CNC(=O)[C@H](CSc1ccc([N+](=O)[O-])cc1[N+](=O)[O-])NC(=O)CC[C@H](NC(=O)OC12CC3CC(CC(C3)C1)C2)C(=O)OCCCC,4.5,0.5,10.1,> 300,> 600,
CCCCOC(=O)CNC(=O)[C@H](CSc1ccc([N+](=O)[O-])cc1[N+](=O)[O-])NC(=O)CC[C@H](NC(=O)c1ccccc1)C(=O)OCCCC,22.9,0.55,,> 300,> 545,
CCCCOC(=O)CNC(=O)[C@H](CSc1ccc([N+](=O)[O-])cc1[N+](=O)[O-])NC(=O)CC[C@H](NC(=O)OC(C)(C)C)C(=O)OCCCC,16.5,0.22,9.9,70.4,320,
Sodium stibogluconate,,,,,,ED50 (Leishmania donovani): 33 µg/mL
CCCCOC(=O)CNC(=O)[C@H](CSc1ccc([N+](=O)[O-])cc1[N+](=O)[O-])NC(=O)CC[C@H](NC(C)=O)C(=O)OCCCC,37.8,6.52,,> 300,> 46,
COC(=O)CNC(=O)[C@H](CSCc1ccc(Br)cc1)NC(=O)CC[C@H](NC(=O)OCc1ccccc1)C(=O)OC,,,,,,Activity [6]: Active; Activity [7]: Active; Activity [8]: Active; Activity [9]: Active; EC50 [10]: 30 µM; Drug uptake [11]: 76%; Drug uptake [12]: 80%; Drug uptake [13]: Active
CCCCOC(=O)CNC(=O)[C@H](CSc1ccc([N+](=O)[O-])cc1[N+](=O)[O-])NC(=O)CC[C@H](NC(=O)CCc1c[nH]c2ccccc12)C(=O)OCCCC,35,0.3,,26,87,
CCCCOC(=O)CNC(=O)[C@H](CSc1ccc([N+](=O)[O-])cc1[N+](=O)[O-])NC(=O)CC[C@H](N)C(=O)OCCCC,,1.88,19.9,107,57.1,Activity (Mus musculus): Toxic
CCCCOC(=O)CNC(=O)[C@H](CSc1ccc([N+](=O)[O-])cc1[N+](=O)[O-])NC(=O)CC[C@H](Nc1ccc([N+](=O)[O-])cc1[N+](=O)[O-])C(=O)OCCCC,,0.72,,> 300,> 417,
CCCCOC(=O)CNC(=O)[C@H](CSc1ccc([N+](=O)[O-])cc1[N+](=O)[O-])NC(=O)CC[C@H](NC(=O)OCc1ccccc1)C(=O)OCCCC,,0.42,> 30,95.2,227,
CCCCCCCCCCCCCC(=O)N[C@@H](CCC(=O)N[C@@H](CSc1ccc([N+](=O)[O-])cc1[N+](=O)[O-])C(=O)NCC(=O)OCCCC)C(=O)OCCCC,> 30,32.6,,> 300,> 9.2,
CCCCOC(=O)CNC(=O)[C@H](CSc1ccc([N+](=O)[O-])cc1[N+](=O)[O-])NC(=O)CC[C@H](NC(=O)/C=C/c1ccccc1)C(=O)OCCCC,> 30,0.28,,34.4,123,
CCCCOC(=O)CNC(=O)[C@H](CSc1ccc([N+](=O)[O-])cc1[N+](=O)[O-])NC(=O)CC[C@H](NC(=O)CC(C)C)C(=O)OCCCC,> 30,1.16,> 30,59.6,51.4,
CCCCOC(=O)CNC(=O)[C@H](CSc1ccc([N+](=O)[O-])cc1[N+](=O)[O-])NC(=O)CC[C@H](NC(=O)OC)C(=O)OCCCC,30.4,2.15,> 30,> 300,> 139,
CCCCOC(=O)CNC(=O)[C@H](CSc1ccc([N+](=O)[O-])cc1[N+](=O)[O-])NC(=O)CC[C@H](NC(=O)CC(C)(C)C)C(=O)OCCCC,12,4.38,,250,57.1,
CCCCOC(=O)CNC(=O)[C@H](CSc1ccc([N+](=O)[O-])cc1[N+](=O)[O-])NC(=O)CC[C@H](NC(=O)CCC(C)C)C(=O)OCCCC,,1.02,,84,82.3,
CCCCOC(=O)CNC(=O)[C@H](CSc1ccc([N+](=O)[O-])cc1[N+](=O)[O-])NC(=O)CC[C@H](NC(=O)C(C)C)C(=O)OCCCC,30.8,0.73,,> 300,> 411,
N[C@@H](CCC(=O)N[C@@H](CSc1ccc([N+](=O)[O-])cc1[N+](=O)[O-])C(=O)NCC(=O)O)C(=O)O,> 30,> 30,> 30,,,
